Source: publication PMC3352175, “Non-coding nucleotides and amino acids near the active site regulate peptide deformylase expression and inhibitor susceptibility in Chlamydia trachomatis” (Microbiology, 2011)

Molecular target: T1, chlamydial PDF (cPDF), peptide deformylase
T1 construct: gene def; C-terminal His6 tag (pET21), expressed in ArcticExpress E. coli, purified on TALON resin
Assay: TNBSA end-point deformylation assay (A335), Lineweaver-Burk
Type: biochemical, Chlamydia trachomatis
Details: fMAS substrate; 50 mM HEPES pH 7.2, 10 mM NaCl, 37 °C, 10 min; mode not stated; read-out: Wild-type
Text: TNBSA end-point deformylation assay (A335), Lineweaver-Burk on chlamydial PDF (cPDF), peptide deformylase

## CNC(=O)[C@H](Cc1c[nH]c2ccccc12)NC(=O)[C@@H](CC(=O)NO)CC(C)C [GM6001, N-[(2R)-2-(hydroxamidocarbonylmethyl)-4-methylpentanoyl]-L-tryptophan methylamide]
  Ki: 160 ± 35 nM
